Test results: PubChem BioAssay (NCI)
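Five compound concentrations were applied to cells in 96-well plates for 48 hours; endpoints were derived by simple linear interpolation of the resulting dose-response curve. TGI: concentration producing complete growth inhibition.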

Columns and labels:
Test in all cases: NCI anticancer screen, dose series, 48 h
[1] = system: UACC-257 melanoma
[2] = system: SF-539 CNS
[3] = system: LOX IMVI melanoma
[4] = system: CCRF-CEM leukemia
[5] = system: NCI/ADR-RES ovarian
[6] = system: HCT-116 colon
[7] = system: SR leukemia
[8] = system: HL-60(TB) leukemia
[9] = system: UACC-62 melanoma
[10] = system: OVCAR-8 ovarian
[11] = system: SW-620 colon
[12] = system: DU-145 prostate
[13] = system: MCF7 breast
[14] = system: MDA-N

| Compound | TGI [1] [µM] | TGI [2] [µM] | TGI [3] [µM] | TGI [4] [µM] | TGI [5] [µM] | TGI [6] [µM] | TGI [7] [µM] | TGI [8] [µM] | TGI [9] [µM] | TGI [10] [µM] | TGI [11] [µM] | TGI [12] [µM] | TGI [13] [µM] | TGI [14] [µM] |
| --- | --- | --- | --- | --- | --- | --- | --- | --- | --- | --- | --- | --- | --- | --- |
| Cc1cn(C2CC(ON3C(=O)c4ccccc4C3=O)C(CO)O2)c(=O)[nH]c1=O (configuration not stated) | > 10 | > 10 | > 10 | > 10 | > 10 | > 10 | > 10 | > 10 | > 10 | > 10 | > 10 | > 10 | > 10 |  |
| O=c1cc(-c2ccccc2)[nH]c2cc3c(cc12)OCO3 | > 100 | 18.8 | > 100 | > 100 |  | > 29.8 | 67.4 | 53 | > 90.7 | > 100 | > 100 | > 100 | > 100 | > 100 |
| Clc1ccc(-c2c(C3=NCCN3)nnn2-c2ccc(Cl)cc2)cc1 | 33 | 34.2 | > 100 | 73 |  | 32.3 | 35.1 | 39.1 | 32.7 | > 100 | 73.8 |  |  |  |
| COC(=O)C(=C/c1ccc(OC)cc1)/C(C(=O)O)=C(/C)c1ccccc1 | > 100 | > 100 | > 100 | > 100 |  | > 100 | > 100 | > 100 | > 100 | > 100 | > 100 |  |  |  |
| c1cc(-c2ncc(-c3ccc4c(c3)CCCO4)o2)ccn1 | 43.5 | 45.2 | 31 | 29.3 | 23.1 | 39.3 |  | 16 | 66.3 | 94.9 |  | > 100 | 80.9 | 23.1 |
| CC1=NC(=Cc2ccc(O)cc2)C(=O)N1n1c(-c2ccccc2)nc2ccccc2c1=O | > 100 | > 100 | > 100 | > 100 |  | > 100 | > 100 | > 100 | > 100 | > 100 | > 100 | > 100 | > 100 | > 100 |
| CCCCCC(C[N+]1(C)CCOCC1)C(=O)/C=C/c1ccccc1 (configuration not stated) | 27.6 | 23.5 | 4.02 | > 35.3 |  | 11.7 | 39.1 | 37.5 | 26.6 | 39.3 | 7.51 |  |  |  |
| O=C(C[n+]1ccccc1)NNC(=O)/C(=C/c1ccc2c(c1)OCO2)NC(=O)c1ccccc1 | > 100 | 75.1 | 49 | 65 |  | > 100 | 36.6 | 64.8 | > 100 | > 85 | > 100 |  |  |  |
| C=CCn1c(=O)n(CC=C)c(=O)n(CC=C)c1=O | > 100 | > 100 | > 100 | > 100 |  | > 100 |  | > 100 | > 100 | > 100 | > 100 |  |  |  |
| O=[N+]([O-])c1ccc(-n2nnc(C3=NCCCN3)c2-c2ccc(Cl)cc2)cc1 | > 100 | > 100 | > 100 | > 100 |  | > 100 | > 100 | > 100 | > 100 | > 100 | > 100 |  |  |  |
| O=C(O)c1nc(-c2ccccn2)c(-c2ccccn2)nc1C(=O)O | 16.4 | 20.6 | 16.7 | > 43.1 | > 23.1 | 5.6 | 9.91 | 18.3 | 6.27 | 21.2 | 18.8 | 12.1 |  | 29.2 |
| Cn1ccc(C(=O)NCCOCCNC(=O)c2ccn(C)c(=O)c2O)c(O)c1=O | > 100 |  | > 100 |  | > 100 | > 100 |  |  | > 100 | > 100 | > 100 | > 100 |  | > 100 |
| Cc1ccc2nc(-c3ccc(N)c(I)c3)sc2c1 | > 100 | 68.3 |  | 88.8 | > 100 | > 100 | 19.8 | 51 | > 100 | > 100 | 57.8 |  |  |  |
| Nc1ccc(C(=O)NN2C(=O)C(Cl)C2c2ccccc2Cl)cc1 (configuration not stated) | 26.8 | 20.2 | 2.9 | 6.67 |  | 16.3 | 31.9 |  | 20.8 | 10.8 | 10.7 |  |  |  |
| CO[C@H]1[C@@H](O)[C@@H](C)O[C@@H](O[C@H]2CC[C@@]3(C)[C@H](CC[C@@H]4[C@@H]3CC[C@]3(C)[C@@H](C5=CC(=O)OC5)[C@@H](OC(C)=O)C[C@]43O)C2)[C@@H]1O | 0.239 | 0.091 | 0.194 |  | 0.175 | 0.109 | > 50 | 0.332 | 0.215 | 0.152 | > 50 | 0.0589 | > 50 |  |
| O=c1[nH]cc(COCC(F)(F)C(F)(F)C(F)(F)C(F)F)c(=O)[nH]1 | > 100 |  | > 100 | > 100 |  | > 100 | > 100 | > 100 | > 100 | > 100 | > 100 |  |  |  |
| Cc1cn(C2CC(N(O)Cc3ccccc3)C(CO)O2)c(=O)[nH]c1=O (configuration not stated) | > 100 | > 100 | > 100 | > 100 |  | > 100 | > 100 | > 100 | > 100 | > 100 | > 100 |  |  |  |
| CC(=O)c1sc2c(c1OC(=O)c1cccs1)c(=O)n(-c1ccccc1)c(=S)n2-c1ccccc1 | 43.9 | 6.26 | 17.2 | 22.6 | 43.3 | 36.6 |  | 52.2 | 37.9 | 21.1 | 45.9 | 57.8 | 56.4 | 19.2 |
| Cc1ccc2c(c1CCCC(C)(C)O)C(=O)C(=O)C(C(C)C)=C2O |  | > 100 |  | > 100 |  | > 100 | > 100 | > 100 |  | > 100 | > 100 |  |  |  |
| COc1cc2c(cc1OC)C(O)[C@H](Br)C(C)(C)O2 (some centres not stated) | > 100 | > 100 | > 100 | > 100 |  | > 100 | > 100 | > 100 | > 100 | > 100 | > 100 |  |  |  |
